From patent US9115072B2, “Compounds and method for reducing uric acid” (WELLSTAT THERAPEUTICS CORPORATION, priority 2008, dated 2015)
Structures can show the parent of a compound that is named as a salt.

Target: T1, human URAT1 (Homo sapiens, UniProt Q96S37)
T1 construct: The full-length hURAT1 cDNA was obtained from the vector pCMV6-XL5 and subcloned into the expression vector pCMV6-Neo
T1 sequence (Q96S37 1-553): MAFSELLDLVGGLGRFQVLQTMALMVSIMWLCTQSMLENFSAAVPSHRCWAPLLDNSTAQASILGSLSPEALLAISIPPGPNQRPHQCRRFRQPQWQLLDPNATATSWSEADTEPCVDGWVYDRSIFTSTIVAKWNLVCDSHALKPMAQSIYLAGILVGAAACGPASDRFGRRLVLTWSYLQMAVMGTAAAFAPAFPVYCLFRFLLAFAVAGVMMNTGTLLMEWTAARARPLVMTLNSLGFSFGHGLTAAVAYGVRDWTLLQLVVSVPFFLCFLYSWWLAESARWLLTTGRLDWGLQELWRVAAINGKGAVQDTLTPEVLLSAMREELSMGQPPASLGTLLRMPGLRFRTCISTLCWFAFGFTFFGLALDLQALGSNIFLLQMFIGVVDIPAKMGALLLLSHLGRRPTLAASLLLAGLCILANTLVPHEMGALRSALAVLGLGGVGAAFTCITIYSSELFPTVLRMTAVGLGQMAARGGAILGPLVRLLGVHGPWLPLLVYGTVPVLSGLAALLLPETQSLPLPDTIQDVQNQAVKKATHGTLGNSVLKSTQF
Experiment: URAT1 inhibition assay, [8-14C] urate uptake in hURAT1-HEK cells
Format: cell-based
Conditions: 50 μM [8-14C] urate; for inhibition at 10 µM: drug concentration typically 10 micromolar, read-out: % of Inhibition (uric acid uptake)
Protocol: A suitable assay involves transfection of cells (e.g. human embryonic kidney cells; “HEK”) with a vector encoding human URAT1, followed by determination of the ability of transfected cells to take up radiolabeled uric acid. The activity of compounds as URAT1 inhibitors is evaluated by their ability to block uric acid uptake by transfected cells.
Urate (50-60 mCi/mmol; American Radio Chemicals, Cat. No. ARC0513).
Plasmid vector pCMV6-XL5 containing hURAT1 cDNA (Cat. No. SC125624) and the expression vector pCMV6-Neo (Cat. No. pCMVNEO) were obtained from OriGene Technologies, Inc. The full-length hURAT1 cDNA was obtained from the vector pCMV6-XL5 and subcloned into the expression vector pCMV6-Neo to create the hURAT1 expression plasmid pCMV6-hURAT1. The sequences were verified by automatic DNA sequencing.
For transfection experiments, cells were plated on 60 mm dishes in 1 ml media per dish. […] Stable transfectants expressing hURAT1 (herein after referred as hURAT1-HEK cells) or cells having only the expression vector pCMV6-Neo (herein after referred as mock-HEK cells) were verified using reverse transcription polymerase chain reaction (RT-PCR) methods.
Before the uptake assay started, the culture medium was removed and the cells were incubated for 5 min in 0.6 ml of HBSS. After that HBSS was removed, the prepared reaction solutions were added into each well and incubated for 5 min at room temperature. Then the reaction solution was removed, cells were washed twice with 0.6 ml of cold HBSS and lysed with 0.2 ml of 0.1 M NaOH for 20 min. […] Test compounds were dissolved in DMSO and the same concentration of DMSO was added into the wells of mock-HEK cells and the hURAT1-HEK cells that didn't contain test compounds. For each test compound, the uptake assay was performed 2 times and carried out in triplicate. Urate uptake of the cells for each test condition was presented as the average percent inhibition in comparison to the DMSO control. The radioactivity values obtained for the wells that contained DMSO were taken as 100% uptake of the cells. The observed concentration-percent inhibition data were fitted to a sigmoidal concentration-effect model, where: IC50^Slope=[(100*Conc^Slope)/% Inhibition]−Conc^Slope
Additional drug concentrations were tested for determination of IC-50 values for some compounds (Table 6).

| Structure (SMILES) | inhibition at 10 µM [%] | IC50 [µM] |
| --- | --- | --- |
| Cc1ccccc1COc1cccc(C(=O)CCC(=O)O)c1 [AN, 4-(3-(2-Methylbenzyloxy)phenyl)-4-oxobutanoic acid] | 54.4 | – |
| Cc1cccc(C)c1COc1cccc(C(C)C(=O)O)c1 (centres unmarked) [DT, 2-(3-(2,6-Dimethylbenzyloxy)phenyl)propanoic acid] | 89.1 | – |
| Cc1cccc(C)c1COc1cccc(C(=O)CCCC(=O)O)c1 [CD, 5-(3-(2,6-Dimethylbenzyloxy)phenyl)-5-oxopentanoic acid] | 63.5 | – |
| Cc1cccc(C)c1COc1cccc(CCC(=O)O)c1 [CM, 3-(3-(2,6-Dimethylbenzyloxy)phenyl)propanoic acid] | 89 | 1.01 |
| Cc1cccc(F)c1COc1cccc(C(=O)CCC(=O)O)c1 [BJ, 4-(3-(2-Fluoro-6-methylbenzyloxy)phenyl)-4-oxobutanoic acid] | 81.8 | – |
| COc1cccc(OC)c1COc1cccc(CC(=O)O)c1 [DY, 2-(3-(2,6-Dimethoxylbenzyloxy)phenyl)acetic acid] | 85.2 | 1.88 |
| COc1ccc(CC(=O)O)cc1OCc1c(C)cccc1C [DQ, 2-(3-(2,6-Dimethylbenzyloxy)-4-methoxyphenyl)acetic acid] | 99.4 | 0.18 |
| O=C(O)Cc1cccc(OCc2c(F)cccc2F)c1 [DR, 2-(3-(2,6-Difluorobenzyloxy)phenyl)acetic acid] | 68.3 | – |
| Cc1cccc(C)c1COc1ccc(C(=O)CCC(=O)O)cc1 [BM, 4-(4-(2,6-Dimethylbenzyloxy)phenyl)-4-oxobutanoic acid] | 22.2 | – |
| Cc1ccc(C)c(COc2ccc(C(=O)CCC(=O)O)cc2)c1 [AT, 4-(4-(2,5-Dimethylbenzyloxy)phenyl)-4-oxobutanoic acid] | 7.95 | – |
| O=C(O)CCC(=O)c1ccc(OCc2ccccc2Cl)cc1 [AI, 4-(4-(2-Chlorobenzyloxy)phenyl)-4-oxobutanoic acid] | 2.3 | – |
| Cc1cccc(C)c1COc1ccc(CC(=O)O)cc1 [DO, 2-(4-(2,6-Dimethylbenzyloxy)phenyl)acetic acid] | 80.3 | – |
| O=C(O)CCC(=O)c1cccc(OCC2CC2)c1 [BH, 4-(3-(Cyclopropylmethoxy)phenyl)-4-oxobutanoic acid] | 62.4 | – |
| O=C(O)Cc1cccc(OCc2ccc(C(F)(F)F)cc2)c1 [DU] | 30.5 | – |
| Cc1cccc(C)c1COc1cccc(CCCCC(=O)O)c1 [CK, 5-(3-(2,6-Dimethylbenzyloxy)phenyl)pentanoic acid] | 88 | 2.69 |
| COc1cc(C(=O)CCC(=O)O)ccc1OCc1c(C)cccc1C [BT, 4-(4-(2,6-Dimethylbenzyloxy)-3-methoxyphenyl)-4-oxobutanoic acid] | 51.8 | – |
| Cc1cccc(Cl)c1COc1cccc(CC(=O)O)c1 [EG, 2-(3-(2-Chloro-6-methylbenzyloxy)phenyl)acetic acid] | 89.7 | – |
| Cc1cccc(C)c1COc1cccc([C@H](O)CCC(=O)O)c1 [CR, 4-(3-(2,6-Dimethylbenzyloxy)-phenyl)-4(R)-hydroxybutanoic acid] | 60.6 | – |
| O=C(O)CCC(=O)c1ccc(OCc2ccccn2)cc1 [AF, 4-oxo-4-(4-(pyridin-2-ylmethoxy)phenyl)butanoic acid] | 41.3 | – |
| CCC(C(=O)O)c1cccc(OCc2c(C)cccc2C)c1 (centres unmarked) [DV, 2-(3-(2,6-Dimethylbenzyloxy)phenyl)butanoic acid] | 79.5 | 0.89 |
| Cc1cccc(C)c1COc1cccc(CC(=O)O)c1 [CF, 3-(2,6-Dimethylbenzyloxy)phenylacetic acid] | 96.5 | 0.53 |

| Structure (SMILES) | inhibition at 10 µM [%] | IC50 [µM] |
| --- | --- | --- |
| Cc1cccc(C)c1COc1cccc(C(=O)CC(C)(C)C(=O)O)c1 [BP, 4-(3-(2,6-Dimethylbenzyloxy)phenyl)-2,2-dimethyl-4-oxobutanoic acid] | 76.5 | 4.39 |
| O=C(O)Cc1cccc(OCc2ccc(C(F)(F)F)cc2C(F)(F)F)c1 [DN, 2-(3-(2,4-bis(trifluoromethyl)benzyloxy)phenyl)acetic acid] | 45.4 | – |
| Cc1cccc(C)c1COc1cc(CC(=O)O)ccc1F [EI, 2-(3-(2,6-Dimethylbenzyloxy)-4-fluorophenyl)acetic acid] | 93 | – |
| O=C(O)CCC(=O)c1ccc(OCc2ccccc2)cc1 [AG, 4-(4-(Benzyloxy)phenyl)-4-oxobutanoic acid] | 5.99 | – |
| Cc1cccc(C)c1COc1cccc(C(C)C(=O)O)c1 (centres unmarked) [EC, 2-(3-(2,6-Dimethylbenzyloxy)phenyl)propanoic acid] | – | 0.33 |
| Cc1cc(C)cc(COc2cccc(CC(=O)O)c2)c1 [DW, 2-(3-(3,5-Dimethylbenzyloxy)phenyl)acetic acid] | 54 | – |
| CN(CCOc1ccc(C(=O)CCC(=O)O)cc1)Cc1ccccc1F [AM, 4-(4-(2-((2-Fluorobenzyl)(methyl)amino)ethoxy)phenyl)-4-oxobutanoic acid hydrochloride] | 0 | – |
| O=C(O)CCC(=O)c1ccc(OCc2c(F)cccc2F)cc1 [AH, 4-(4-(2,6-Difluorobenzyloxy)phenyl)-4-oxobutanoic acid] | 26.8 | – |
| Cc1cccc(C)c1COc1cccc(C(=O)C(=O)O)c1 [CQ, 2-(3-(2,6-Dimethylbenzyloxy)phenyl)-2-oxoacetic acid] | 84.8 | 1.33 |
| O=C(O)CCC(=O)c1cccc(OCc2c(Cl)cccc2Cl)c1 [DS, 4-(3-(2,6-Dichlorobenzyloxy)phenyl)-4-oxobutanoic acid] | 75 | – |
| Cc1cccc(C)c1C(=O)Oc1cccc(C(=O)CCC(=O)O)c1 [DP, 4-(3-(2,6-Dimethylbenzoyloxy)phenyl)-4-oxobutanoic acid] | 60.5 | – |
| COC(=O)CC(=O)c1cccc(OCc2c(C)cccc2C)c1 [EB, Methyl 3-(3-(2,6-dimethylbenzyloxy)phenyl)-3-oxopropanoate] | 21.6 | – |
| Cc1ccc(COc2cccc(CC(=O)O)c2)c(C)c1 [DX, 2-(3-(2,4-Dimethylbenzyloxy)phenyl)acetic acid] | 64 | – |
| COc1ccccc1COc1ccc(C(=O)CCC(=O)O)cc1 [AB, 4-(4-(2-Methoxybenzyloxy)phenyl)-4-oxobutanoic acid] | 3.7 | – |
| O=C(O)Cc1cccc(OCc2ccccc2)c1 [DZ, 2-(3-(Benzyloxy)phenyl)acetic acid] | 26.9 | – |
| Cc1cccc(C)c1COc1cccc(C2(C(=O)O)CC2)c1 [EF, 1-(3-(2,6-Dimethylbenzyloxy)phenyl)cyclopropanecarboxylic acid] | 90.3 | 0.59 |
| O=C(O)CCC(=O)c1ccc(OCc2ccccc2C(F)(F)F)cc1 [AY, 4-(4-(2-Trifluoromethylbenzyloxy)phenyl)-4-oxobutanoic acid] | 8.9 | – |
| Cc1cccc(C)c1COc1cccc(CCCC(=O)O)c1 [BS, 4-(3-(2,6-Dimethylbenzyloxy)phenyl)butanoic acid] | 28.6 | – |
| Cc1cccc(C)c1COc1ccccc1CC(=O)O [EA, 2-(2-(2,6-Dimethylbenzyloxy)phenyl)acetic acid] | 49 | – |
| Cc1cccc(C)c1COc1cccc(C(C)(C)C(=O)O)c1 [EE, 2-(3-(2,6-Dimethylbenzyloxy)phenyl)-2-methylpropanoic acid] | 90.1 | – |
